Experimental data published in ChEMBL document CHEMBL1128974, “Design, synthesis and X-ray crystallographic studies of [7.3.1] and [8.3.1] macrocyclic FKBP-12 ligands” (Bioorg Med Chem Lett, 1996).

molecular target: T1, Peptidyl-prolyl cis-trans isomerase FKBP1A (Homo sapiens, UniProt P62942); experiment: Compound was evaluated for inhibitory activity against human FKBP-12 rotamase
T1 sequence (P62942 whole entry): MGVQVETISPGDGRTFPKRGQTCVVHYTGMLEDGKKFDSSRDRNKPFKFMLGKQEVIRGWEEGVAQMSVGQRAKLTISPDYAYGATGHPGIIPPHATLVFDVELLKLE

Compared with `COc1cc(C(=O)C(=O)N2[C@@H]3CCC[C@H]2C(=O)OCCCCOC3=O)cc(OC)c1OC`, `COc1cc(C(=O)C(=O)N2[C@@H]3CCC[C@H]2C(=O)OCC(CO[Si](C)(C)C(C)(C)C)COC3=O)cc(OC)c1OC` (stereo not given in full) is 5.4-fold higher in Ki: 0.28 µM for the first, 1.5 µM for the second.

`CCC(C)(C)C(=O)C(=O)N1[C@@H]2CCC[C@H]1C(=O)OCCCOC2=O` and `CCC(C)(C)C(=O)C(=O)N1[C@@H]2CCC[C@H]1C(=O)OCCCCOC2=O` are within 1.5-fold of each other in Ki: 10 µM for the first, 8.3 µM for the second.

Compared with `CC(C)[C@@H]1CC[C@@H](C)[C@](O)(C(=O)C(=O)N2[C@@H]3CCC[C@H]2C(=O)OCCCOC3=O)C1`, `COCC(C)[C@@H]1CC[C@@H](C)[C@](O)(C(=O)C(=O)N2[C@@H]3CCC[C@H]2C(=O)OCC(CO)COC3=O)C1` (stereo not given in full) is higher in Ki: 8.1 µM for the first, greater than 50 µM for the second.

`COc1cc(C(=O)C(=O)N2[C@@H]3CCC[C@H]2C(=O)OCC(COCc2ccccc2)COC3=O)cc(OC)c1OC` (stereo not given in full) gave a Ki of 1.2 µM.

molecular target: T1, Peptidyl-prolyl cis-trans isomerase FKBP1A; experiment: Compound was evaluated for inhibitory activity against human FKBP-12 rotamase; no inhibition

For `COCC(C)[C@@H]1CC[C@@H](C)[C@](O)(C(=O)C(=O)N2[C@@H]3CCC[C@H]2C(=O)OCC(COCc2ccccc2)COC3=O)C1` (stereo not given in full), the Ki was “Not Active”.
For `CO[C@@H](CC(C)C)[C@@H]1CC[C@@H](C)[C@](O)(C(=O)C(=O)N2[C@@H]3CCC[C@H]2C(=O)OCC(CO)COC3=O)C1` (stereo not given in full), the Ki was “Not Active”.
`CO[C@@H](CC(C)C)[C@@H]1CC[C@@H](C)[C@](O)(C(=O)C(=O)N2[C@@H]3CCC[C@H]2C(=O)OCC(COCc2ccccc2)COC3=O)C1` (stereo not given in full) was tested, and the Ki was “Not Active”.
